Legend:
barnyardgrass [1] = assay: Test B preemergence/postemergence greenhouse plant response rating 0 to 10; type: in vivo, Echinochloa crus-galli; conditions: for Plant response rating, Barnyardgrass: 0 to 10 scale
Summary of the method: (§1)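 Postemergence treatment of plants two to eighteen cm tall ran alongside preemergence treatment of planted seed, each using compound in a non-phytotoxic solvent.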

cocklebur = assay: as above; type: in vivo, Xanthium pensylvanicum; conditions: for Plant response rating, Cocklebur: 0 to 10 scale
Summary of the method: as §1

crabgrass = assay: as above; type: in vivo, Digitaria spp.; conditions: for Plant response rating, Crabgrass: 0 to 10 scale
Summary of the method: as §1

giant foxtail [2] = assay: as above; type: in vivo, Setaria faberii; conditions: 0 to 10 scale
Summary of the method: as §1

lambsquarters = assay: as above; type: in vivo, Chenopodium album; conditions: 0 to 10 scale
Summary of the method: as §1

wild buckwheat = assay: as above; type: in vivo, Polygonum convolvulus; conditions: 0 to 10 scale
Summary of the method: as §1

wild oat [3] = assay: as above; type: in vivo, Avena fatua; conditions: POSTEMERGENCE, 0 to 10 scale
Summary of the method: as §1

purple nutsedge = assay: as above; type: in vivo, Cyperus rotundus; conditions: 0 to 10 scale
Summary of the method: as §1

chickweed = assay: Test C preemergence/postemergence greenhouse plant response rating 0 to 100; type: in vivo, Stellaria media; conditions: POSTEMERGENCE; for Plant response rating, Chickweed: 0 to 100 scale
Summary of the method: (§2)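 Compounds in non-phytotoxic solvent applied preemergence to sandy loam one day after planting, postemergence at the 1–4 leaf stage, or to ~2.5 cm floodwater over silt loam.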

cotton = assay: as above; type: in vivo, Gossypium hirsutum; conditions: POSTEMERGENCE; for Plant response rating, Cotton: 0 to 100 scale
Summary of the method: as §2

downy brome = assay: as above; type: in vivo, Bromus tectorum; conditions: POSTEMERGENCE; for Plant response rating Downy Brome: 0 to 100 scale
Summary of the method: as §2

giant foxtail [4] = assay: as above; type: in vivo, Setaria faberii; conditions: POSTEMERGENCE; for Plant response rating, Giant foxtail: 0 to 100 scale
Summary of the method: as §2

rape = assay: as above; type: in vivo, Brassica napus; conditions: POSTEMERGENCE; for Plant response rating, Rape: 0 to 100 scale
Summary of the method: as §2

soybean = assay: as above; type: in vivo, Glycine max; conditions: POSTEMERGENCE; for Plant response rating, Soybean: 0 to 100 scale
Summary of the method: as §2

wild oat [5] = assay: as above; type: in vivo, Avena fatua; conditions: POSTEMERGENCE; for Plant response rating, Wild oat: 0 to 100 scale
Summary of the method: as §2

rice = assay: Test C flood test plant response rating 0 to 100; type: in vivo, Oryza sativa; conditions: for Plant response rating Rice Japonica: flood test species listed under POSTEMERGENCE, 0 to 100 scale
Summary of the method: as §2

umbrella sedge = assay: Test C flood test plant response rating 0 to 100; type: in vivo, Cyperus difformis; conditions: for Plant response rating Umbrella sedge: flood test species listed under POSTEMERGENCE, 0 to 100 scale
Summary of the method: as §2

barnyardgrass [6] = assay: Test C flood test plant response rating 0 to 100; type: in vivo, Echinochloa crus-galli; conditions: for Plant response rating (0 to 100), Barnyardgrass: under POSTEMERGENCE head (flood test species); for Plant response rating, Barnyardgrass: flood test species listed under POSTEMERGENCE, 0 to 100 scale
Summary of the method: as §2

[7] = POSTEMERGENCE section, flood test, Rate 4 g/ha
[8] = Rate 16 g/ha, under POSTEMERGENCE head (flood test species)

SMILES: CC(C)COc1cc(-c2nn3c(c2Cl)CCCC3)c(F)cc1Cl [Compound 30]
- Plant response rating (0 to 10 scale), Barnyardgrass (barnyardgrass [1]; POSTEMERGENCE, Rate 50 g/ha): 6
- Plant response rating, Barnyardgrass (barnyardgrass [1]; POSTEMERGENCE, Rate 200 g/ha): 10
- Plant response rating, Barnyardgrass (barnyardgrass [1]; PREEMERGENCE, Rate 50 g/ha): 2
- Plant response rating, Barnyardgrass (barnyardgrass [1]; Rate 200 g/ha, PREEMERGENCE): 6
- Plant response rating (0 to 10 scale), Cocklebur (cocklebur; POSTEMERGENCE, Rate 50 g/ha): 7
- Plant response rating, Cocklebur (cocklebur; POSTEMERGENCE, Rate 200 g/ha): 10
- Plant response rating, Cocklebur (cocklebur; PREEMERGENCE, Rate 50 g/ha): 0
- Plant response rating, Cocklebur (cocklebur; Rate 200 g/ha, PREEMERGENCE): 4
- Plant response rating (0 to 10 scale), Crabgrass (crabgrass; POSTEMERGENCE, Rate 50 g/ha): 3
- Plant response rating, Crabgrass (crabgrass; POSTEMERGENCE, Rate 200 g/ha): 2
- Plant response rating, Crabgrass (crabgrass; PREEMERGENCE, Rate 50 g/ha): 6
- Plant response rating, Crabgrass (crabgrass; Rate 200 g/ha, PREEMERGENCE): 9
- Plant response rating, Giant foxtail (giant foxtail [2]; POSTEMERGENCE, Rate 50 g/ha): 4
- Plant response rating, Giant foxtail (giant foxtail [2]; PREEMERGENCE, Rate 50 g/ha): 7
- Plant response rating, Giant foxtail (giant foxtail [2]; Rate 200 g/ha, POSTEMERGENCE): 5
- Plant response rating, Giant foxtail (giant foxtail [2]; Rate 200 g/ha, PREEMERGENCE): 8
- Plant response rating, Lambsquarter (lambsquarters; POSTEMERGENCE, Rate 50 g/ha): 10
- Plant response rating, Lambsquarter (lambsquarters; PREEMERGENCE, Rate 50 g/ha): 8
- Plant response rating, Lambsquarter (lambsquarters; Rate 200 g/ha, POSTEMERGENCE): 10
- Plant response rating, Lambsquarter (lambsquarters; Rate 200 g/ha, PREEMERGENCE): 10
- Plant response rating, Wild buckwheat (wild buckwheat; POSTEMERGENCE, Rate 50 g/ha): 10
- Plant response rating, Wild buckwheat (wild buckwheat; PREEMERGENCE, Rate 50 g/ha): 0
- Plant response rating, Wild buckwheat (wild buckwheat; Rate 200 g/ha, POSTEMERGENCE): 10
- Plant response rating, Wild buckwheat (wild buckwheat; Rate 200 g/ha, PREEMERGENCE): 6
- Plant response rating, Wild oat (wild oat [3]; Rate 50 g/ha): 5
- Plant response rating, Wild oat (wild oat [3]; Rate 200 g/ha): 6
- Plant response rating, Nutsedge (purple nutsedge; POSTEMERGENCE, Rate 50 g/ha): 2
- Plant response rating, Nutsedge (purple nutsedge; PREEMERGENCE, Rate 50 g/ha): 0
- Plant response rating, Nutsedge (purple nutsedge; Rate 200 g/ha, POSTEMERGENCE): 5
- Plant response rating, Nutsedge (purple nutsedge; Rate 200 g/ha, PREEMERGENCE): 0
- Plant response rating, Chickweed (chickweed; 62 g/ha): 50
- Plant response rating, Chickweed (chickweed; 250 g/ha): 70
- Plant response rating (0 to 100), Chickweed (chickweed; Rate 4 g/ha): 10
- Plant response rating (0 to 100), Chickweed (chickweed; Rate 16 g/ha): 20
- Plant response rating, Cotton (cotton; 62 g/ha): 100
- Plant response rating, Cotton (cotton; 250 g/ha): 100
- Plant response rating (0 to 100), Cotton (cotton; Rate 4 g/ha): 100
- Plant response rating (0 to 100), Cotton (cotton; Rate 16 g/ha): 100
- Plant response rating Downy Brome (downy brome; 62 g/ha): 60
- Plant response rating Downy Brome (downy brome; 250 g/ha): 90
- Plant response rating (0 to 100), Downy Brome (downy brome; Rate 4 g/ha): 20
- Plant response rating (0 to 100), Downy Brome (downy brome; Rate 16 g/ha): 40
- Plant response rating, Giant foxtail (giant foxtail [4]; 62 g/ha): 50
- Plant response rating, Giant foxtail (giant foxtail [4]; 250 g/ha): 80
- Plant response rating (0 to 100), Giant foxtail (giant foxtail [4]; Rate 4 g/ha): 0
- Plant response rating (0 to 100), Giant foxtail (giant foxtail [4]; Rate 16 g/ha): 20
- Plant response rating, Rape (rape; 62 g/ha): 100
- Plant response rating, Rape (rape; 250 g/ha): 100
- Plant response rating (0 to 100), Rape (rape; Rate 4 g/ha): 50
- Plant response rating (0 to 100), Rape (rape; Rate 16 g/ha): 80
- Plant response rating, Soybean (soybean; 62 g/ha): 50
- Plant response rating, Soybean (soybean; 250 g/ha): 50
- Plant response rating (0 to 100), Soybean (soybean; Rate 4 g/ha): 0
- Plant response rating (0 to 100), Soybean (soybean; Rate 16 g/ha): 20
- Plant response rating, Wild oat (wild oat [5]; 62 g/ha): 60
- Plant response rating, Wild oat (wild oat [5]; 250 g/ha): 80
- Plant response rating (0 to 100), Wild oat (wild oat [5]; Rate 4 g/ha): 20
- Plant response rating (0 to 100), Wild oat (wild oat [5]; Rate 16 g/ha): 40
- Plant response rating (0 to 100), Rice Japonica (rice; [7]): 35
- Plant response rating (0 to 100), Rice Japonica (rice; [8]): 40
- Plant response rating Rice Japonica (rice; 62 g/ha): 50
- Plant response rating Rice Japonica (rice; 250 g/ha): 60
- Plant response rating (0 to 100), Umbrella sedge (umbrella sedge; [7]): 10
- Plant response rating (0 to 100), Umbrella sedge (umbrella sedge; [8]): 25
- Plant response rating Umbrella sedge (umbrella sedge; 62 g/ha): 30
- Plant response rating Umbrella sedge (umbrella sedge; 250 g/ha): 80
- Plant response rating (0 to 100), Barnyardgrass (barnyardgrass [6]; Rate 4 g/ha): 85
- Plant response rating (0 to 100), Barnyardgrass (barnyardgrass [6]; Rate 16 g/ha): 95
- Plant response rating, Barnyardgrass (barnyardgrass [6]; 62 g/ha): 100
- Plant response rating, Barnyardgrass (barnyardgrass [6]; 250 g/ha): 100
